Test results as given in ChEMBL document CHEMBL1201862, “PubChem BioAssay data set” (2004).
Calls of active or inactive are those of the source.

Assays:
BJ [1] = test: cells; type: functional, cell-based; conditions: Homo sapiens
Nonstructural protein 1 = Nonstructural protein 1 (Influenza A virus, UniProt Q194T2); type: functional, Influenza A virus (A/California/07/2009(H1N1))
Vero = test: cells; type: functional; conditions: Chlorocebus sabaeus
BJ [2] = test: BJ-TERT-LT-ST fibroblast viability loss – cell-based, RAS-independent, luminescence, dose response (AID 1935); type: functional; conditions: Homo sapiens;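 also: BJ fibroblasts immortalized with TERT plus LT and ST oncogenes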
[3] = DRD fibroblast viability loss – cell-based, non-viral oncogenic, luminescence, dose response (AID 1934); type: functional; conditions: Homo sapiens
[4] = test system: Streptococcus sp. 'group A'; test: Streptococcus pyogenes SK(-)GAS viability under kanamycin – luminescence, BacTiterGlo, confirmation, counter-screen for streptokinase expression inhibitor project, dose response (AID 1900); type: functional, organism-based
BJ [5] = test: BJ-TERT fibroblast viability loss – cell-based, RAS-independent, luminescence, dose response (AID 1933); type: functional; conditions: Homo sapiens
BJ [6] = test: growth inhibition of engineered Ras-driven BJ cells – cell-based, alamar blue fluorescence, cherrypicked samples, dose response (AID 2631); type: functional; conditions: Homo sapiens;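 also: confirmatory dose-response assay in RAS-dependent BJ fibroblasts engineered with TERT, LT and ST, with cytotoxicity read by fluorescence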
Streptococcus = test: GAS UMAA2166 growth inhibition – luminescence, BacTiterGlo, counter-screen for streptokinase expression inhibitor project, dose response (AID 1915); type: functional, organism-based;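 also: potency for reduction of bacterial viability or growth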
Escherichia coli = test: microbe, parasite or virus in culture
[7] = molecular target: T1, Corticotropin-releasing factor receptor 2/Corticotropin-releasing factor-binding protein (Homo sapiens, UniProt P24387+Q13324); test: Dose Response confirmation of uHTS hits for small molecule antagonists of the CRF-binding protein and CRF-R2 receptor complex.; type: functional; conditions: read-out: IC50_Mean
T1 sequence (Q13324 whole entry): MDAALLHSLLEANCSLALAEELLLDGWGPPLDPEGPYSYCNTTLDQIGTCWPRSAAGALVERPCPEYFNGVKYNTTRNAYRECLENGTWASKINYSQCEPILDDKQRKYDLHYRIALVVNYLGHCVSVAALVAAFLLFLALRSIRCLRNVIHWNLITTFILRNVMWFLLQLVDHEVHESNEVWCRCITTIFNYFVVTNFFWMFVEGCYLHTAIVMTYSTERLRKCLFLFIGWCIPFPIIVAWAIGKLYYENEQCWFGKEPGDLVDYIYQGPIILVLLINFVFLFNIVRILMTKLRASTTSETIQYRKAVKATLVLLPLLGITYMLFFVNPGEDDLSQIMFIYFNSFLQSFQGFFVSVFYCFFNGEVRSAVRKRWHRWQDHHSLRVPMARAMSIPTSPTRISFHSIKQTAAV
T1 sequence (P24387 whole entry): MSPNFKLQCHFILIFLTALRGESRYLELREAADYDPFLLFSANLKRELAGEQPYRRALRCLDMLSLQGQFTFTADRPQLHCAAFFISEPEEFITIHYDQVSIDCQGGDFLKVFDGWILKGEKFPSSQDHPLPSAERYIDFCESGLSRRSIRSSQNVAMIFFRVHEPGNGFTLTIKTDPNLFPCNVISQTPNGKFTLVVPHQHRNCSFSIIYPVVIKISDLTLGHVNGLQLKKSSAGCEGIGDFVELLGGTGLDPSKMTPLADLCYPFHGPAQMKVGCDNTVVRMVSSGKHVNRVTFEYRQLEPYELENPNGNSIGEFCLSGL

[8] = molecular target: T1, Corticotropin-releasing factor receptor 2/Corticotropin-releasing factor-binding protein; test: activators of CRF receptor 2 with binding protein – uHTS hits, confirmation (AID 602473); type: functional; conditions: read-out: EC50_Mean
[9] = molecular target: ATP-dependent molecular chaperone HSP82 (Candida albicans (strain WO-1) (Yeast), UniProt C4YTQ8); test: steroid-induced GRE reporter decrease in yeast – S. cerevisiae, luminescence, Hsp90 inhibitor project, dose response (AID 2400); type: functional, cell-based;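 also: beta-galactosidase luminescence from glucocorticoid response element reporter as proxy for Hsp90 function; inhibitor potency where signal loss means Hsp90 inhibition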
[10] = fluconazole-exposed Candida albicans growth modulators – fluorescence, retest, confirmation (AID 2467); type: functional, cell-based
[11] = molecular target: Serine/threonine-protein phosphatase (Candida dubliniensis (strain CD36 / CBS 7987 / NCPF 3949 / NRRLY-17841) (Yeast), UniProt B9W6M3); test: blockers of CaCl2-induced CDRE-lacZ signaling – S. cerevisiae, luminescence, secondary, dose response (AID 2388); type: functional, cell-based;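 also: yeast reporter cells carrying a calcineurin-responsive lacZ construct stimulated with calcium chloride; luminescent beta-galactosidase reporter signal in whole cells rather than isolated phosphatase activity; potency for inhibition where a drop in reporter signal means calcineurin blockade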
[12] = NIH-3T3 fibroblast cytotoxicity, dose response, cytotoxicity control, cell-based, fluorescence, Alamar Blue, secondary assay (AID 2327); type: functional;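 also: NIH-3T3 mouse fibroblasts cultured with fluconazole at 8 µg/mL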
[13] = HIV-1 AD8 envelope cell-cell fusion blockers – cherry-pick, dose response (AID 652062); type: functional, cell-based;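 also: luciferase signal from cell-cell fusion driven by HIV-1 clade B AD8 Env; potency is for inhibitors of fusion seen as a drop in luminescence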
HEK293 [14] = test: cells; conditions: Homo sapiens
[15] = off-target signal loss in HeLa-CEM21 co-culture – HeLa F-luc CTL cells, cherry-picked, counter-screen for HIV-1 Env fusion inhibitor project, dose response (AID 652040); type: functional, cell-based;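 also: potency for signal decrease marking cytotoxic or nonspecific inhibition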
[16] = blockers of HIV-1 envelope-mediated cell-cell fusion – cherry-pick, dose response (AID 652057); type: functional, cell-based
[17] = blockers of HIV-1 ZM109 envelope-driven cell-cell fusion – HeLa effector, CEM target cells, luciferase, cherry-pick, dose response (AID 652058); type: functional, cell-based;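 also: luciferase signal from HIV-1 Env mediated cell-cell fusion of effector and target cells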
HEK293 [18] = test: cells; conditions: Homo sapiens; remark: listed apart in the source
[19] = viability loss in CEM21 cells – cell-based, CellTiter-Glo luminescence, cherry-picked, cytotoxicity control for viral fusion inhibitor project, dose response (AID 652042); type: functional;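 also: potency for signal decrease meaning cytotoxicity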
ORF 73 = molecular target: T2, ORF 73 (Human herpesvirus 8, UniProt O40947); test: KSHV LANA DNA-binding disruption – biochemical, fluorescence polarization, cherry-picked samples, dose response (AID 504725); design: species or system Human gammaherpesvirus 8;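 also: fluorescence polarization of a labeled DNA duplex reporting LANA DNA binding; potency is for inhibitors that block LANA binding to the DNA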
T2 sequence (O40947 whole entry): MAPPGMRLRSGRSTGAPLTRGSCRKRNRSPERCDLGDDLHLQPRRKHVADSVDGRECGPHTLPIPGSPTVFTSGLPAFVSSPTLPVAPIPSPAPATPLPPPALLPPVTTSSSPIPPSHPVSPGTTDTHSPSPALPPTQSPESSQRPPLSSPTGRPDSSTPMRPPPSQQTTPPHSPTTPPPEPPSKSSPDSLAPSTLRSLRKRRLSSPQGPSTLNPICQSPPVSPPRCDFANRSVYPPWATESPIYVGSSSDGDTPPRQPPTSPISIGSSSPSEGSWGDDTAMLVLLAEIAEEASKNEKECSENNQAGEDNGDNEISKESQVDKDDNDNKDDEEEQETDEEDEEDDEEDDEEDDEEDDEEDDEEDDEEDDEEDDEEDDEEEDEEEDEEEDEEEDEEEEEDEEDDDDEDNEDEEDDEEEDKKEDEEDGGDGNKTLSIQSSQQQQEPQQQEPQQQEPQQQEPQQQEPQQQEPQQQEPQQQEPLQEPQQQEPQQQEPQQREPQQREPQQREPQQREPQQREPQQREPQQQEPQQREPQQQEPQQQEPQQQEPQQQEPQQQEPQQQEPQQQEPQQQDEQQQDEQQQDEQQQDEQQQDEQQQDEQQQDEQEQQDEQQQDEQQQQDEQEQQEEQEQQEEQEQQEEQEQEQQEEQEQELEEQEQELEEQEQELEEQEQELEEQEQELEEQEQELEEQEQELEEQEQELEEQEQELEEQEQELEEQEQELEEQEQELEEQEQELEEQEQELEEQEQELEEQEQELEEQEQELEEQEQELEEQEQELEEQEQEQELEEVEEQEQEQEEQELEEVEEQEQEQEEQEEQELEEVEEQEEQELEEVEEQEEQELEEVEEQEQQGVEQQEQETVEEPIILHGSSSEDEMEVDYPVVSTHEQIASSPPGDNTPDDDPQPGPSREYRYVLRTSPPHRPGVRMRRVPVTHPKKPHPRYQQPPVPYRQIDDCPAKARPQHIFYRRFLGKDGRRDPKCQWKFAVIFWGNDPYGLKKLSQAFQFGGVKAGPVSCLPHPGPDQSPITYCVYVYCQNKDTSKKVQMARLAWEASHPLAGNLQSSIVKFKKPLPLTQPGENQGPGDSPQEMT

Keap1/Nrf2 = Keap1/Nrf2 (Homo sapiens, UniProt Q14145); test: disruptors of Keap1 binding to Nrf2 peptide – biochemical, fluorescence polarization, cherry-picked samples, dose response (AID 588683)
[20] = molecular target: Latent membrane protein 1 (Human herpesvirus 4 (strain B95-8), UniProt P03230); test: LMP1 TES1 pathway selectivity over dsRED control – imaging, HEK293T, dual-color eGFP/dsRED, cherry-picks, selectivity assay for LMP1 NF-kB inhibitor project, dose response (AID 588398); type: functional, cell-based
HEK293 [21] = test: EBV LMP1 TES2 canonical NF-kB signalling blockers – cell-based, HEK293, luciferase, cherry-pick, dose response (AID 588343); type: functional; conditions: Homo sapiens
[22] = molecular target: G-protein coupled receptor 55 (Homo sapiens, UniProt Q9Y2T6); test: selective activators of receptor GPR55 – imaging, U2OS cells, beta-arrestin-GFP redistribution, primary screen (AID 1961); type: functional
[23] = non-specific 3'UTR reporter inhibition in Clone20-Shn3RL – cell-based, Renilla luciferase, cherry-picked, counter-screen for Shn3 inhibitor project, dose response (AID 624133); type: functional
[24] = molecular target: T3, Heat shock factor protein 1 (Mus musculus, UniProt P38532); test: decrease of HSF1-responsive luciferase luminescence – cell-based, NIH3T3, dose retest, confirmation (AID 2382); type: functional;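 also: NIH3T3 fibroblasts with HSF1-driven luciferase reporter stressed by proteasome inhibitor MG132; luminescence from HSF1-driven luciferase expression after 8 hours of MG132 stress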
T3 sequence (P38532 whole entry): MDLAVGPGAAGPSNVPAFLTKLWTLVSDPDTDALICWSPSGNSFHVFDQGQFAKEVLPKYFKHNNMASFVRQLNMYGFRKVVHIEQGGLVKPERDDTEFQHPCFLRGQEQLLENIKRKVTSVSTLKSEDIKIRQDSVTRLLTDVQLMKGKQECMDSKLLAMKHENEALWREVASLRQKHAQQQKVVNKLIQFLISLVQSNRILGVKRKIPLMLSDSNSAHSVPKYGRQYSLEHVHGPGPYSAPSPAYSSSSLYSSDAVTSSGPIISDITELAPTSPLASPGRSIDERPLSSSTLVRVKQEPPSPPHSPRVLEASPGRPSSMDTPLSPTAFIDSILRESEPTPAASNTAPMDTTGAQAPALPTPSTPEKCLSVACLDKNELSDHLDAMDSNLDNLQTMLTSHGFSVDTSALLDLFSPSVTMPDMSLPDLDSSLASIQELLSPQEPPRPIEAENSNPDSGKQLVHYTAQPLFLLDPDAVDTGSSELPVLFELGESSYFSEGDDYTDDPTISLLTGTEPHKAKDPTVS

[25] = Luminescence Cell-Based Dose Retest to Confirm Inhibitors of Cancer Stem Cells. [Related pubchem assays (depositor defined):AID2717, AID2721]; type: functional; conditions: Homo sapiens
INS1 = test: INS-1E survival protection against cytokine death – cell-based, luminescence, retest, dose response (AID 449756); type: functional; conditions: Rattus norvegicus;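 also: cell death triggered by IL-1 beta plus TNF-alpha plus IFN-gamma mixture; protective hits raise ATP signal compared with cytokine alone wells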
[26] = viability of HCT116 lacking mutant beta-catenin – cell-based, human colon tumor, dose response (AID 1045); type: functional;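 also: HCT116 colon tumor cells with beta catenin knocked out; cells exposed to compound for 60 hours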
[27] = reduction of Shn3 3'UTR-driven luciferase in osteoblasts – cell-based, Clone20 osteoblasts, firefly luciferase, cherry-picked, dose response (AID 624132); type: functional;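 also: firefly luciferase luminescence from reporter carrying the Shn3 3'UTR in osteoblasts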
[28] = viability of PTEN-deleted HCT116 cells – cell-based, HCT116 PTEN knockout, dose response (AID 1047); type: functional;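 also: HCT116 colon tumor cells with PTEN knocked out; cells exposed to compound for 60 hours before readout; potency for loss of cell viability measured by luminescence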

Sequence of Serine/threonine-protein phosphatase (B9W6M3 whole entry): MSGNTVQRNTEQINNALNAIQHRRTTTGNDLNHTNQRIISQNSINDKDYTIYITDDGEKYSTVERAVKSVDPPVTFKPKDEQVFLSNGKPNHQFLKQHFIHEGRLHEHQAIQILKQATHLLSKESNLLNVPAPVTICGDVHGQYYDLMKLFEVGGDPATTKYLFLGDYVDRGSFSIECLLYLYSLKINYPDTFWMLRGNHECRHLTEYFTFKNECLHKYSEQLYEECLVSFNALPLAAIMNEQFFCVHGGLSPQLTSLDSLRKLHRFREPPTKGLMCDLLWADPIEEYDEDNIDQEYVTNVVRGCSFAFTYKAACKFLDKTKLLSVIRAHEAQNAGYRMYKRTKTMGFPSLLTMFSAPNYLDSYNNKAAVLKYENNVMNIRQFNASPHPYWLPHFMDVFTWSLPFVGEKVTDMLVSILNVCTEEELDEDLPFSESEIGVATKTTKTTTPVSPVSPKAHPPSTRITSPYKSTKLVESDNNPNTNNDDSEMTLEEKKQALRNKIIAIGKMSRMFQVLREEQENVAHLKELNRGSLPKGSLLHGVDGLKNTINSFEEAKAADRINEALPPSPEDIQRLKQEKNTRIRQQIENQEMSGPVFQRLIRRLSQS
Sequence of ATP-dependent molecular chaperone HSP82 (C4YTQ8 whole entry): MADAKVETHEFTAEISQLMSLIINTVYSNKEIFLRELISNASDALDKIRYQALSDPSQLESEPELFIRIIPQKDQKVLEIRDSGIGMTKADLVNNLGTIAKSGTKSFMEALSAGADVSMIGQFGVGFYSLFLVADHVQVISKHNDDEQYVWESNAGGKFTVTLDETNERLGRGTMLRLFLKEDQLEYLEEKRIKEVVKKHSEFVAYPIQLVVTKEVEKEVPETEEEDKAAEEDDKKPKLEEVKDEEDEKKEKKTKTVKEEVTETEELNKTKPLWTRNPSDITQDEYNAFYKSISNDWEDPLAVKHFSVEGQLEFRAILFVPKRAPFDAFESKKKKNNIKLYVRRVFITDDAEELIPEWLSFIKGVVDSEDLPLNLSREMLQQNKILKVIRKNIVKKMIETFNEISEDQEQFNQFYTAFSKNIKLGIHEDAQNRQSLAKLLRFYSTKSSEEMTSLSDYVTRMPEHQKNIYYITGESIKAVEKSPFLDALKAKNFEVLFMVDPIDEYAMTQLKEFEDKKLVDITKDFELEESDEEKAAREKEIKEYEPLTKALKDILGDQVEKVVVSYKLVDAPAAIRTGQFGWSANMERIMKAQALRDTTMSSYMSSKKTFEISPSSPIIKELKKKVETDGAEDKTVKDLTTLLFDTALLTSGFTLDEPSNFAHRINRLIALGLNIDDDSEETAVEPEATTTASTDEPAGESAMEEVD
Sequence of Latent membrane protein 1 (P03230 whole entry): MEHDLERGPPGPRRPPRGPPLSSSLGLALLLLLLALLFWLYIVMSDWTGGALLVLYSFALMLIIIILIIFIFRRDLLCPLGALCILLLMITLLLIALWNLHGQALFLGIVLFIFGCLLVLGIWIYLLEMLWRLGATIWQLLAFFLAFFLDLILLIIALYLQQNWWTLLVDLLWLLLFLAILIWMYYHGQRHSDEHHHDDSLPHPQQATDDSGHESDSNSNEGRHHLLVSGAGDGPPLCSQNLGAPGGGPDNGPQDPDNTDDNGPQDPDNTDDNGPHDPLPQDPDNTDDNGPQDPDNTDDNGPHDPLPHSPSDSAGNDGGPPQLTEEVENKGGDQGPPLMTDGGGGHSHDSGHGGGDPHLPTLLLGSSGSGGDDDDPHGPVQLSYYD
Sequence of G-protein coupled receptor 55 (Q9Y2T6 whole entry): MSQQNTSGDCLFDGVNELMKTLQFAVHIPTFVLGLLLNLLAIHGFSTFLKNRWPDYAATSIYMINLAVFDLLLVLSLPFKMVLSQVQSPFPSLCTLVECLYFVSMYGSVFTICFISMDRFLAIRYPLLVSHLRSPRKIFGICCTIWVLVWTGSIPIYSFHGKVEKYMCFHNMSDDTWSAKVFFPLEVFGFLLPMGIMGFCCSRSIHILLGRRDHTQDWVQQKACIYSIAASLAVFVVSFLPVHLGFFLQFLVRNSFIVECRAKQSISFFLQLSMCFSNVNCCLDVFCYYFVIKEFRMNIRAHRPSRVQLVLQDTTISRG
Sequence of Keap1/Nrf2 (Q16236 whole entry): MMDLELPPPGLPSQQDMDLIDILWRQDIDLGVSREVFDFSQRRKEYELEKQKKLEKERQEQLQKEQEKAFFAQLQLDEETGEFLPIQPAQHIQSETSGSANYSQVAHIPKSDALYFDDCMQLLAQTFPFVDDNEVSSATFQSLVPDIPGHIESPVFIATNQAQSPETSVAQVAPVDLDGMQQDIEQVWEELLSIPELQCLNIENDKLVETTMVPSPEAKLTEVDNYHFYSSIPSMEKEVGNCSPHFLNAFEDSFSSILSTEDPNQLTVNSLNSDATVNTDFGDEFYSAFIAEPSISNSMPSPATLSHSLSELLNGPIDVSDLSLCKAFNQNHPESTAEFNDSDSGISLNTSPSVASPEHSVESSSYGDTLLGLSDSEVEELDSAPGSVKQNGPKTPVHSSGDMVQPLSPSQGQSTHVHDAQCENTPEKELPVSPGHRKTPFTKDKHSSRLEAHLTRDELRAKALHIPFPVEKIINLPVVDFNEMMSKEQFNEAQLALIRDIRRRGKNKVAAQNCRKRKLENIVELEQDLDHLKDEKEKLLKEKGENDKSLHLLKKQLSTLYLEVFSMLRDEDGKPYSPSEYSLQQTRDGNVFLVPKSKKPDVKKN
Sequence of Keap1/Nrf2 (Q14145 whole entry): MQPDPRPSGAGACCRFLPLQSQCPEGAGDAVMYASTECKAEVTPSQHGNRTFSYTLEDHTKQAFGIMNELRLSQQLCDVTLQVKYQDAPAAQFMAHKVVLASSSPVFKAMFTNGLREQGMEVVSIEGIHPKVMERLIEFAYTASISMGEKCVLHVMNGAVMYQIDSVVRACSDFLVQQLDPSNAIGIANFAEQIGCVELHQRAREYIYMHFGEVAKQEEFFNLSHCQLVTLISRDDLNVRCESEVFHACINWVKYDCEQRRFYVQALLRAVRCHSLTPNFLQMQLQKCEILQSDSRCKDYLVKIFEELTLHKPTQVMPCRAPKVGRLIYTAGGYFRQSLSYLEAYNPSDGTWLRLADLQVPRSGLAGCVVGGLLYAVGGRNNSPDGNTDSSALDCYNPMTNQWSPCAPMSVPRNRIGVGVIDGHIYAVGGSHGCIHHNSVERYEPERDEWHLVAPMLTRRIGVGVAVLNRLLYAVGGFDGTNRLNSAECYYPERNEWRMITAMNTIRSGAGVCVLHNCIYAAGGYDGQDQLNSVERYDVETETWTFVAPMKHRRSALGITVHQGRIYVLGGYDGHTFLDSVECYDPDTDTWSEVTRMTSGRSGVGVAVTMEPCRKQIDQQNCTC
Sequence of Nonstructural protein 1 (Q194T2 whole entry): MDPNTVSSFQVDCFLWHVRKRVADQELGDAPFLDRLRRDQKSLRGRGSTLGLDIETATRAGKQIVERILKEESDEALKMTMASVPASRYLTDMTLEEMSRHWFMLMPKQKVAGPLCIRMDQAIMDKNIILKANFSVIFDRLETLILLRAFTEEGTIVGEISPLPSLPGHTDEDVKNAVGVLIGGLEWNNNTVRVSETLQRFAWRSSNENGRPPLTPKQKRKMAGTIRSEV

C/C(=N\NC(=O)c1cccc2ccccc12)c1ccccn1
EC50 (BJ [1]): 3.45 µM (active) | IC50 (Nonstructural protein 1): 7.25 µM (active) | CC50 (Vero): 3.56 µM (active) | EC50 (BJ [2]): 3.87 µM (active) | EC50 [3]: 2.4 µM (active) | EC50 [4]: 2.88 µM (active) | EC50 (BJ [5]): 5.73 µM (active) | EC50 (BJ [6]): 0.497 µM (inconclusive) | EC50 (Streptococcus): 6.39 µM (active)

COC(=O)c1ccc(OC(=O)c2nn(C)cc2Cl)c(OC)c1
AC50 (Escherichia coli): 42.7 µM (active) | IC50 [7]: > 47.1 µM (inactive) | EC50 [8]: > 53 µM (inactive)

CCCCOc1cccc(C2C(C(=O)c3ccc(C)o3)=C(O)C(=O)N2Cc2ccco2)c1 (configuration not stated)
EC50 [9]: 16.6 µM (active) | EC50 [10]: 0.398 µM (active) | EC50 [11]: > 180 µM (inactive) | EC50 [12]: > 150 µM (inactive)

COC(=O)c1c(NC(=O)CN2CCC3(O)CCCCC3C2c2cc(OC)ccc2OC)sc(C)c1C (configuration not stated)
AC50 [13]: 3.62 µM (active) | EC50 (HEK293 [14]): > 59.7 µM (inactive) | AC50 [15]: 1.21 µM (active) | AC50 [16]: 0.472 µM (active) | AC50 [17]: 1.15 µM (active) | EC50 (HEK293 [18]): > 59.7 µM (inactive) | AC50 [19]: 48.1 µM (active)

O=C(c1ccccc1)c1ccc(O)cc1O [2,4-DIHYDROXYBENZOPHENONE]
AC50 (ORF 73): 5.38 µM (active) | AC50 (Keap1/Nrf2): 11.1 µM (active)

CCc1cc(C(=O)NN=C(S)Nc2cc(C)ccc2C)cs1
EC50 [9]: > 150 µM (inactive) | EC50 [10]: 0.382 µM (active) | EC50 [11]: > 180 µM (inactive) | EC50 [12]: > 150 µM (inactive)

O=C(CF)N(O)c1ccc(C=Cc2ccccc2)cc1
AC50 [20]: 0.734 µM (active) | AC50 (HEK293 [21]): 0.732 µM (active)

CCOC(=O)/C(=C\c1ccc([N+](=O)[O-])cc1)C(=O)c1cc(C(C)=O)c(Nc2ccccc2)s1
EC50 [22]: > 32 µM (inactive) | EC50 (BJ [1]): 3.1 µM (active) | AC50 [23]: 6.21 µM (active) | EC50 [24]: 3.16 µM (inconclusive) | AC50 [25]: 0.685 µM (active) | AC50 (INS1): 1.94 µM (active) | EC50 [26]: 3.81 µM (active) | EC50 (BJ [2]): 2.18 µM (inconclusive) | EC50 [3]: 3.32 µM (active) | EC50 (BJ [5]): 2.12 µM (active) | EC50 (BJ [6]): 1.49 µM (active) | AC50 [27]: 2.47 µM (active) | EC50 [28]: 4.17 µM (active)

CC1CCc2c(N3CCC(O)CC3)c(F)cc3c(=O)c(C(=O)O)cn1c23 (configuration not stated) [NADIFLOXACIN]
AC50 (Escherichia coli): 1.3 µM (active)

O=C1CN(c2nc(-c3cccnc3)nc3sc4c(c23)CCCC4)CCN1
EC50 (HEK293 [14]): > 59.6 µM (inactive) | EC50 (HEK293 [18]): > 59.6 µM (inactive)
